Laboratory results as given in patent US5100670A, “Use of a bacitracin fraction as a growth promoting agent” (Protor Co., priority 1989, dated 1992).

How the values were obtained:
[1] = system: insulinase; experiment: insulinase inhibitory activity measurement (method of Duckworth et al.); type: biochemical; conditions: for anti-insulinase activity: general statement in the description; for insulinase inhibitory activity: peaks from CM-Sepharose column, Example 1
Procedure: The desired fraction is believed to have a molecular weight of about 1400, approximately the same as bacitracin A or F. Their anti-insulinase and antibacterial activities can be assayed in conventional manner. For example, the insulinase inhibitory activity was measured according to the method of Duckworth, et al., Proc. Nat. Acad. Sci., 69, 3698-3702 (1972) and the anti-bacterial activity by the method of Patrick, et al., Antibiotics and Chemotherapy, 1, 133-137 (1951).
A 350 ml bed volume cf CM-Sepharose in a packed column (2.8×56 cm) was equilibrated with 0.05M ammonium acetate, pH 4.5. One gram of commercial bacitracin dissolved in 50 ml of buffer was applied to the packed column. The material was eluted with 2 liter of equilibrating buffer followed by 350 ml of 1M ammonium acetate pH 4.5 buffer. Five ml fractions were collected and absorbance measurements at 252, 280 and 290 nm were made. In addition, insulinase inhibitory activity measurements were made on each peak. […] The peaks were collected, lyophilized, weighed and dissolved in water at 5 mg/ml concentration for specific activity measurements. The material collected with the second buffer contained 5-10% of the total weight of the applied material and 90% of the total insulinase inhibitory capacity. The specific activity of this material was 10-12 times that of the starting commercial material.

[2] = by the protease insulinase; cited from earlier work

| Substance | anti-insulinase activity [1] | insulinase inhibitory activity [1] | t1/2 of destruction of insulin after injection [2] |
| --- | --- | --- | --- |
| bacitracin F | substantially no anti-insulinase activity | negligible |  |
| bacitracin A | substantially no anti-insulinase activity | negligible |  |
| insulin |  |  | approximately 40 minutes |
